≈ marks a conversion by molar mass, not a printed value. Where “and” joins values, the source holds several entries; their conditions need not be identical. Equal values may be shown once. Read-outs that look alike come from different tables or passages of the source. Marks after values point to notes of the source that are not given here.
Assays:
MTB H37Rv = settings: ref [26]; cited from earlier work
M. tuberculosis H37Rv [1] = experiment: microbe, parasite or virus in culture; format: cell-based; settings: Mycobacterium tuberculosis, read-out: MIC (µM) H37Rv
[2] = system: M. abscessus (ATCC 19977); experiment: MIC determination against NTM strains, microbroth dilution; format: cell-based, Mycobacterium abscessus; settings: Mycobacteroides abscessus
M. avium (ATCC 25291) [3] = experiment: as above; format: cell-based; settings: Mycobacterium avium, ATCC25291; NTM strain
[4] = system: M. avium complex (ATCC 700,891 MAC 101); experiment: Ex vivo efficacy in infected THP-1 macrophages; format: cell-based; settings: Mycobacterium avium
[5] = system: M. abscessus (ATCC 19977); experiment: Ex vivo efficacy in infected THP-1 macrophages; format: cell-based, Mycobacterium abscessus; settings: Mycobacteroides abscessus
M. tuberculosis H37Rv [6] = experiment: Fractional inhibitory concentration (FIC), checkerboard with standard of care drugs; format: cell-based, Mycobacterium tuberculosis
M. tuberculosis H37Rv [7] = settings: compound 1 included as reference; ref [26],[27],[28]; cited from earlier work
H37Rv (katG^del) = settings: compound 1 included as reference; ref [26],[27],[28]; cited from earlier work
[8] = system: M. abscessus (ATCC 19977); settings: compound 1 included as reference; ref [26],[27],[28]; cited from earlier work
M. avium (ATCC 25291) [9] = settings: compound 1 included as reference; ref [26],[27],[28]; cited from earlier work
[10] = ATCC19977, read-out: MIC (µM) M. abscessus 19977
[11] = ATCC19977, NTM strain, read-out: MIC (µM) M. abscessus 19977
[12] = ATCC700, THP-1, read-out: M. avium Ex Vivo Efficacy (>90% Inhibition µM)
[13] = ATCC19977, THP-1, read-out: M. abscessus Ex Vivo Efficacy (>90% Inhibition µM)
[14] = ATCC700, infected THP-1 macrophages, concentration for >90% inhibition, read-out: M. avium Ex Vivo Efficacy (>90% Inhibition µM)
[15] = ATCC19977, infected THP-1 macrophages, concentration for >90% inhibition, read-out: M. abscessus Ex Vivo Efficacy (>90% Inhibition µM)

Row | Molecule | MIC (M. tuberculosis H37Rv [1]) [µM] | MIC (M. avium (ATCC 25291) [3]) [µM] | MIC [2, 11] [µM] | further results
1 | A-azepano-28-cinnamoyloxybetulin | – | – | – | MBC against MTB H37Rv (MTB H37Rv): 4 µM; MIC against MTB H37Rv (MTB H37Rv): 2 µM
2 | COc1c(N2C[C@@H]3CCCN[C@@H]3C2)c(F)cc2c(=O)c(C(=O)O)cn(C3CC3)c12 [Moxifloxacin, reference compound] | 0.06 (≈ 0.0241 µg/mL) | – | – | –
3 | C=C(C)[C@@H]1CC[C@]2(COC(=O)c3ccccc3C(=O)O)CC[C@]3(C)[C@H](CC[C@@H]4[C@@]5(C)CCCNC(C)(C)[C@@H]5CC[C@]43C)[C@@H]12 [Compound 4] | 16 (≈ 9.44 µg/mL) | 4 (≈ 2.36 µg/mL) | – | MIC [2, 10]: 16 µM (≈ 9.44 µg/mL)
4 | C=C(C)[C@@H]1CC[C@]2(COS(=O)(=O)c3ccc(C)cc3)CC[C@]3(C)[C@H](CC[C@@H]4[C@@]5(C)CCCNC(C)(C)[C@@H]5CC[C@]43C)[C@@H]12 [Compound 6] | 8 (≈ 4.77 µg/mL) | 1 (≈ 0.596 µg/mL) | – | MIC [2, 10]: 8 µM (≈ 4.77 µg/mL)
5 | C=C(C)[C@@H]1CC[C@]2(COC(C)=O)CC[C@]3(C)[C@H](CC[C@@H]4[C@@]5(C)CCCN(C(=O)c6cccnc6)C(C)(C)[C@@H]5CC[C@]43C)[C@@H]12 [Compound 12] | 32 (≈ 18.8 µg/mL) | 4 (≈ 2.36 µg/mL) | 8 (≈ 4.71 µg/mL) | –
6 | C=C(C)[C@@H]1CC[C@]2(C(=O)N3CCN(C)CC3)CC[C@]3(C)[C@H](CC[C@@H]4[C@@]5(C)CCCNC(C)(C)[C@@H]5CC[C@]43C)[C@@H]12 [Compound 9] | ≤ 4 | 4 (≈ 2.15 µg/mL) | – | MIC [2, 10]: ≤ 4 µM; IC90 [4, 12]: > 128 µM; IC90 [5, 13]: > 128 µM; FIC value with Ethambutol (M. tuberculosis H37Rv [6]): 2.5 Indifferent; FIC value with Rifampin (M. tuberculosis H37Rv [6]): 1.5 Indifferent
7 | C=C(C)[C@@H]1CC[C@]2(C(=O)NC3CCCCC3)CC[C@]3(C)[C@H](CC[C@@H]4[C@@]5(C)CCCNC(C)(C)[C@@H]5CC[C@]43C)[C@@H]12 [Compound 10] | ≤ 4 | 2 (≈ 1.07 µg/mL) | – | MIC [2, 10]: 8 µM (≈ 4.3 µg/mL); IC90 [4, 12]: 64 µM; IC90 [5, 13]: > 128 µM
8 | C=C(C)[C@@H]1CC[C@]2(C(=O)NC(CO)Cc3ccccc3)CC[C@]3(C)[C@H](CC[C@@H]4[C@@]5(C)CCCNC(C)(C)[C@@H]5CC[C@]43C)[C@@H]12 (stereo partly drawn) [Compound 8] | 8 (≈ 4.71 µg/mL) | 4 (≈ 2.36 µg/mL) | – | MIC [2, 10]: 32 µM (≈ 18.8 µg/mL); IC90 [4, 12]: 16 µM; IC90 [5, 13]: > 128 µM
9 | C=C(CN=[N+]=[N-])[C@@H]1CC[C@]2(COC(C)=O)CC[C@]3(C)[C@H](CC[C@@H]4[C@@]5(C)CCCNC(C)(C)[C@@H]5CC[C@]43C)[C@@H]12 [Compound 15] | > 32 | 64 (≈ 33.6 µg/mL) | > 64 | –
10 | CC1(C)CCC23CCC4(C)C(CCC5C6(C)CCCNC(C)(C)C6CCC54C)C2C1OC3 (stereo not drawn) [Compound 17] | 16 (≈ 7.07 µg/mL) | 0.5 (≈ 0.221 µg/mL) | 16 (≈ 7.07 µg/mL) | IC90 [4, 14]: > 128 µM; IC90 [5, 15]: > 128 µM
11 | C=C(C)[C@@H]1CC[C@]2(COC(C)=O)CC[C@]3(C)[C@H](CC[C@@H]4[C@@]5(C)CCCN(C(C)=O)C(C)(C)[C@@H]5CC[C@]43C)[C@@H]12 [Compound 11] | 8 (≈ 4.21 µg/mL) | 4 (≈ 2.1 µg/mL) | 16 (≈ 8.41 µg/mL) | –
12 | CC(=O)[C@@H]1CC[C@]2(COS(=O)(=O)c3ccc(C)cc3)CC[C@]3(C)[C@H](CC[C@@H]4[C@@]5(C)CCCNC(C)(C)[C@@H]5CC[C@]43C)[C@@H]12 [Compound 13] | 32 (≈ 19.1 µg/mL) | 2 (≈ 1.2 µg/mL) | 16 (≈ 9.57 µg/mL) | –
13 | NCC[C@H](O)C(=O)N[C@@H]1C[C@H](N)[C@@H](O[C@H]2O[C@H](CN)[C@@H](O)[C@H](O)[C@H]2O)[C@H](O)[C@H]1O[C@H]1O[C@H](CO)[C@@H](O)[C@H](N)[C@H]1O [Amikacin, reference compound] | – | – | 8 (≈ 4.68 µg/mL) | –
14 | CC[C@H]1OC(=O)[C@H](C)[C@@H](O[C@H]2C[C@@](C)(OC)[C@@H](O)[C@H](C)O2)[C@H](C)[C@@H](O[C@@H]2O[C@H](C)C[C@H](N(C)C)[C@H]2O)[C@](C)(OC)C[C@@H](C)C(=O)[C@H](C)[C@@H](O)[C@]1(C)O [Clarithromycin, reference compound] | – | 0.125 (≈ 0.0935 µg/mL) | 4 (≈ 2.99 µg/mL) | IC90 [4, 14]: 8 µM; IC90 [5, 15]: 128 µM
15 | C=C(C)[C@@H]1CC[C@]2(C)CC[C@]3(C)[C@H](CC[C@@H]4[C@@]5(C)CCCNC(C)(C)[C@@H]5CC[C@]43C)[C@@H]12 [Compound 2, azepano-lupeol] | ≤ 4 | 1 (≈ 0.426 µg/mL) | ≤ 4 | IC90 [4, 14]: > 128 µM; IC90 [5, 15]: > 128 µM
16 | C=C(CBr)[C@@H]1CC[C@]2(COC(C)=O)CC[C@]3(C)[C@H](CC[C@@H]4[C@@]5(C)CCCNC(C)(C)[C@@H]5CC[C@]43C)[C@@H]12 [Compound 14] | > 32 | 0.0625 (≈ 0.0352 µg/mL) | > 64 | –
17 | C#CCNC(=O)[C@]12CC[C@@H](C(=C)C)[C@@H]1[C@H]1CC[C@@H]3[C@@]4(C)CCCNC(C)(C)[C@@H]4CC[C@@]3(C)[C@]1(C)CC2 [Compound 20, 17-(Propargyl)-3-deoxo-3a-homo-3a-aza-lup-20(29)-en-carboxamide] | ≤ 4 | 4 (≈ 1.97 µg/mL) | 16 (≈ 7.88 µg/mL) | –
18 | CC(C)=C1CCC=C2CC[C@]3(C)[C@H](CC[C@@H]4[C@@]5(C)CCCNC(C)(C)[C@@H]5CC[C@]43C)[C@H]21 [Compound 18] | 16 (≈ 6.78 µg/mL) | 4 (≈ 1.69 µg/mL) | 32 (≈ 13.6 µg/mL) | IC90 [4, 14]: 128 µM; IC90 [5, 15]: > 128 µM
19 | NNC(=O)c1ccncc1 [Isoniazid, reference compound] | 0.03 (≈ 0.00411 µg/mL) | – | – | –
20 | C=C(C)[C@@H]1CC[C@]2(CN)CC[C@]3(C)[C@H](CC[C@@H]4[C@@]5(C)CCCNC(C)(C)[C@@H]5CC[C@]43C)[C@@H]12 [Compound 3] | 8 (≈ 3.53 µg/mL) | 2 (≈ 0.882 µg/mL) | – | MIC [2, 10]: 16 µM (≈ 7.05 µg/mL); IC90 [4, 12]: > 128 µM; IC90 [5, 13]: > 128 µM; FIC interpretation with Isoniazid (M. tuberculosis H37Rv [6]): 1.0 Additive (key: FIC VALUE ≤ 0.5 (Synergistic); 0.5–1.0 (Additive); 1.0–4.0 (Indifferent); > 4.0 (Antagonistic)); FIC interpretation with Rifampin (M. tuberculosis H37Rv [6]): 1.0 Additive (key: FIC VALUE ≤ 0.5 (Synergistic); 0.5–1.0 (Additive); 1.0–4.0 (Indifferent); > 4.0 (Antagonistic)); FIC value with Ethambutol (M. tuberculosis H37Rv [6]): 1.5 Indifferent; FIC value with Isoniazid (M. tuberculosis H37Rv [6]): 1.0 Additive; FIC value with Rifampin (M. tuberculosis H37Rv [6]): 1.0 Additive
21 | CO[C@H]1/C=C/O[C@@]2(C)Oc3c(C)c(O)c4c(O)c(c(/C=N/N5CCN(C)CC5)c(O)c4c3C2=O)NC(=O)/C(C)=C\C=C\[C@H](C)[C@H](O)[C@@H](C)[C@@H](O)[C@@H](C)[C@H](OC(C)=O)[C@@H]1C [Rifampin, reference compound] | ≤ 0.004 | 0.0625 (≈ 0.0514 µg/mL) | – | –
22 | C=C(C)[C@@H]1CC[C@]2(CO)CC[C@]3(C)[C@H](CC[C@@H]4[C@@]5(C)CCCNC(C)(C)[C@@H]5CC[C@]43C)[C@@H]12 [Compound 1, azepanobetulin] | – | – | – | IC90 [4, 14]: 8 µM; IC90 [5, 15]: > 128 µM; MIC (µM) H37Rv (M. tuberculosis H37Rv [7]): 4 * µM; MIC (µM) H37Rv (katG^del) (H37Rv (katG^del)): 2 * µM; MIC (µM) M. abscessus 19977 [8]: 8 * µM; MIC (µM) M. avium 25291 (M. avium (ATCC 25291) [9]): 0.125 µM and 0.125 * µM
23 | O=[N+]([O-])c1cn2c(n1)OC[C@@H](OCc1ccc(OC(F)(F)F)cc1)C2 [Pretomanid, reference compound] | 0.125 (≈ 0.0449 µg/mL) | – | – | –
24 | C=C(C)[C@@H]1CC[C@]2(COC(=O)c3cccnc3)CC[C@]3(C)[C@H](CC[C@@H]4[C@@]5(C)CCCNC(C)(C)[C@@H]5CC[C@]43C)[C@@H]12 [Compound 5] | 8 (≈ 4.37 µg/mL) | 1 (≈ 0.547 µg/mL) | – | MIC [2, 10]: 16 µM (≈ 8.75 µg/mL); IC90 [4, 12]: 32 µM; IC90 [5, 13]: > 128 µM
25 | C=C(C)[C@@H]1CC[C@]2(C=NNC(=O)c3ccncc3)CC[C@]3(C)[C@H](CC[C@@H]4[C@@]5(C)CCCNC(C)(C)[C@@H]5CC[C@]43C)[C@@H]12 [Compound 7] | – | 4 (≈ 2.24 µg/mL) | 8 (≈ 4.47 µg/mL) | IC90 [4, 14]: 128 µM; IC90 [5, 15]: > 128 µM; FIC value with Rifampin (M. tuberculosis H37Rv [6]): 1.0 Additive; FIC value with Ethambutol (M. tuberculosis H37Rv [6]; combination with Ethambutol): 1.0; FIC value with Isoniazid (M. tuberculosis H37Rv [6]; combination with Isoniazid): 0.8

Reference: PMC8621456, “New Investigations with Lupane Type A-Ring Azepane Triterpenoids for Antimycobacterial Drug Candidate Design” (International Journal of Molecular Sciences, 2021)
